These results are taken from ChEMBL document CHEMBL3431459, “Roche carnitine palmitoyltransferase modulator screening data (supplementary data associated with the publication CHEMBL2216752)”.

For data set [1], the target named is T1, Carnitine O-palmitoyltransferase 1, liver isoform (Rattus norvegicus, UniProt P32198).
T1 sequence (P32198 whole entry): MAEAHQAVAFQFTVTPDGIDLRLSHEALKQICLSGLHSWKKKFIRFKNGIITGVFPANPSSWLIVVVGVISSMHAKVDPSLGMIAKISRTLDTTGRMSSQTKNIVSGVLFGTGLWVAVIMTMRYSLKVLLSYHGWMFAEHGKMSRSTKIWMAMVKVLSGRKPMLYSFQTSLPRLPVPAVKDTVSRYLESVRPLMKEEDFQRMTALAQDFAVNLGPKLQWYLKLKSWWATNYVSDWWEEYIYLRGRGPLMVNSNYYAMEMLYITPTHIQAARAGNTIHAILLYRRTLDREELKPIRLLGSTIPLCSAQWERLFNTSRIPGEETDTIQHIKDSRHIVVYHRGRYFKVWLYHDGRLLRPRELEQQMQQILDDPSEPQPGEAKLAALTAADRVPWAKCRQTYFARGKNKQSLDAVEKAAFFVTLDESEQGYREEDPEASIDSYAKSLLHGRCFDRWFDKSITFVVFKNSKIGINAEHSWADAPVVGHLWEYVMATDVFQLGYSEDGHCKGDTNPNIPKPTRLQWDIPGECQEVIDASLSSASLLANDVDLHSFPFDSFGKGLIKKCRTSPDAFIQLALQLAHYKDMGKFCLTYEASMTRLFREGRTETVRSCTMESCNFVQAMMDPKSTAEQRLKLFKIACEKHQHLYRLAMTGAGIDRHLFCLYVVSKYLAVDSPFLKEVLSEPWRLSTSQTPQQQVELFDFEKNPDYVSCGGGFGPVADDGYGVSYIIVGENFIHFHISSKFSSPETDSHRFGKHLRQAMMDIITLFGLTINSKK
The experiment in a line: (§1) SUPPLEMENTARY: Inhibition of Carnitine palmitoyltransferase 1, liver isoform.

Data set [2] deals with T2, Carnitine O-palmitoyltransferase 1, liver isoform (Homo sapiens, UniProt P50416).
T2 sequence (P50416 whole entry): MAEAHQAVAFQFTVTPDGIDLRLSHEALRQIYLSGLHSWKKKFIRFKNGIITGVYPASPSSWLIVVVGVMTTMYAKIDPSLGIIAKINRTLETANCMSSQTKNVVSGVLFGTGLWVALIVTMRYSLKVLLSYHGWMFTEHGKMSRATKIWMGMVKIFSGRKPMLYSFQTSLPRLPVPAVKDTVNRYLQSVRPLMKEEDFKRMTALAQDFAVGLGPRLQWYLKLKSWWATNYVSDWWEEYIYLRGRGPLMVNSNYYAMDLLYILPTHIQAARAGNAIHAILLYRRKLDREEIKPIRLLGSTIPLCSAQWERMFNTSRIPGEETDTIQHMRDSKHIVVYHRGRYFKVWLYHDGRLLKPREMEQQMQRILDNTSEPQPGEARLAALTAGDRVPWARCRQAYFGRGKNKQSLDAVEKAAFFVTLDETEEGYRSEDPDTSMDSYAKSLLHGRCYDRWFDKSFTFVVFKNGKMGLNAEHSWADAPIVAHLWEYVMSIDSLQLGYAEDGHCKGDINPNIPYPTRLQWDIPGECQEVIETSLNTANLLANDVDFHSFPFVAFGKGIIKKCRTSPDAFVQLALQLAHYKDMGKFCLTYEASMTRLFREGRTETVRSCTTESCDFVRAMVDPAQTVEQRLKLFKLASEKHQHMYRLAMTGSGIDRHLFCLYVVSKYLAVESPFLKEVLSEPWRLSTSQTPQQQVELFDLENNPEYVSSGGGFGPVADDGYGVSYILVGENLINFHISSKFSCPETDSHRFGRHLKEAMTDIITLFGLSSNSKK
The description is as §1.

Data set [3] addresses T3, Carnitine O-palmitoyltransferase 2, mitochondrial (Homo sapiens, UniProt P23786).
T3 sequence (P23786 whole entry): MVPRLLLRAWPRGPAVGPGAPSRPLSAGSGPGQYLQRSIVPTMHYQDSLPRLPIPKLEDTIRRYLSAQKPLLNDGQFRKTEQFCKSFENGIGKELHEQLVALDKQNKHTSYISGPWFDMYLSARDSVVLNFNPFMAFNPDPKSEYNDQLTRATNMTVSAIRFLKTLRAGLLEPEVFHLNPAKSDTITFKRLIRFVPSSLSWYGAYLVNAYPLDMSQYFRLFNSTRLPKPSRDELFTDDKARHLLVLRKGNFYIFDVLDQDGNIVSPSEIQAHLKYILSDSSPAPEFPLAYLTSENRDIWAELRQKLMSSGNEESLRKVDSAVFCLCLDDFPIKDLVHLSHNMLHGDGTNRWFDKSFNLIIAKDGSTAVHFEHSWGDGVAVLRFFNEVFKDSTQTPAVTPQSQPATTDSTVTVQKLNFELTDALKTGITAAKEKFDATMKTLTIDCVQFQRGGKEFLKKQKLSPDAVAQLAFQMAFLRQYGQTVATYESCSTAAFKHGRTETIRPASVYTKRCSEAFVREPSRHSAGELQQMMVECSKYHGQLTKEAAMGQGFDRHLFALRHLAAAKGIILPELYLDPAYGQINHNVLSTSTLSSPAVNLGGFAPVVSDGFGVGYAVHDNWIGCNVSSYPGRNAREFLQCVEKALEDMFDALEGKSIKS
Description: (§2) SUPPLEMENTARY: Inhibition of Carnitine palmitoyltransferase 2.

Data set [4] addresses T4, Carnitine O-palmitoyltransferase 2, mitochondrial (Rattus norvegicus, UniProt P18886).
T4 sequence (P18886 whole entry): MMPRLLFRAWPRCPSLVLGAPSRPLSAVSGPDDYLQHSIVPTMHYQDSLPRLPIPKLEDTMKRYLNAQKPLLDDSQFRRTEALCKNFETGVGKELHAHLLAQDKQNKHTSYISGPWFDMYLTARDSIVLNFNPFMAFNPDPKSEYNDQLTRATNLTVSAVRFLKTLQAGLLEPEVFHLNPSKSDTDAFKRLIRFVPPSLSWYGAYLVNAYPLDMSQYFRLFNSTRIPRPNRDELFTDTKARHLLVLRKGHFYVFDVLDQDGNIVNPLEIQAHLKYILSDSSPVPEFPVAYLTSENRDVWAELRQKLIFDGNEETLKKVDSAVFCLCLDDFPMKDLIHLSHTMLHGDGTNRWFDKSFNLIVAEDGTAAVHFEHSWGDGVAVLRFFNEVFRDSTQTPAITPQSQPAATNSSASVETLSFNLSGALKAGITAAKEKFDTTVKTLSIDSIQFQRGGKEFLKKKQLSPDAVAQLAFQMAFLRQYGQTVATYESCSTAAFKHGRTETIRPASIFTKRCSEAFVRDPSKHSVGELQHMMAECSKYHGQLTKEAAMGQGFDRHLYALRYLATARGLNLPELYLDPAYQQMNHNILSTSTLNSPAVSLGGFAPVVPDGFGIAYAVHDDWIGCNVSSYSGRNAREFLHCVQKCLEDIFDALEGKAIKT
Described as §2.

Data set [5] can be described thus: SUPPLEMENTARY: Lyophilisation Solubility Assay (LYSA). It counts as physicochemical. The settings on record: read-out: Kinetic_solubility.
The nature of data set [6]: SUPPLEMENTARY: PAMPA permeability assay. It counts as physicochemical. The following applies: read-out: Permeability.
Data set [7] can be described thus: SUPPLEMENTARY: Lipophilicity (log D) Determination by high-throughput shake-flask. Type of data set: physicochemical. The following applies: octanol/water.
For data set [8], the target named is T5, Carnitine O-palmitoyltransferase 1, muscle isoform (Homo sapiens, UniProt Q92523).
T5 sequence (Q92523 whole entry): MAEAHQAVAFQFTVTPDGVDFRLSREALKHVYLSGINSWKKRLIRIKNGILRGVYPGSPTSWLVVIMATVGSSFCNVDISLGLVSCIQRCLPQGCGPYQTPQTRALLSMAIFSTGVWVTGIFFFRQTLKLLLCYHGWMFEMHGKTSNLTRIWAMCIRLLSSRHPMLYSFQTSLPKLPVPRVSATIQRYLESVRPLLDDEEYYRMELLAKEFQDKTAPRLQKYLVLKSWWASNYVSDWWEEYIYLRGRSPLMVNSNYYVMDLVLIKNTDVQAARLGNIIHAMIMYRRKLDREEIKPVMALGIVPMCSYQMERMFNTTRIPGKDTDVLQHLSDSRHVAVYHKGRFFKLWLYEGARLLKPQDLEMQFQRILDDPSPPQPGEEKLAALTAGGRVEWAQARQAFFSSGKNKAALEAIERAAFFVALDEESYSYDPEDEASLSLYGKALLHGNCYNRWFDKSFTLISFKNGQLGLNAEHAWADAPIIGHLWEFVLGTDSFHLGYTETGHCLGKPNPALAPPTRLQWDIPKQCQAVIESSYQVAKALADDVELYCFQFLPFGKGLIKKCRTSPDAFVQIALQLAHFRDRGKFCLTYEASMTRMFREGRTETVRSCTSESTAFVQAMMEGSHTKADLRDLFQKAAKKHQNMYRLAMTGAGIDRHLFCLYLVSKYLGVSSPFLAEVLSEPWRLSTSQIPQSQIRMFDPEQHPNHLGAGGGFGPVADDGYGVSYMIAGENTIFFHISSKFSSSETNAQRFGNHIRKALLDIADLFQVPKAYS
Description: SUPPLEMENTARY: Inhibition of Carnitine palmitoyltransferase 1, muscle isoform. Further details: species or system Muscle tissue.

In brackets after ≈: the same amount, converted by molar mass. Bounds are passed on as bounds.

For `Cc1cc(-c2nc([C@H]3CCCCN3C(=O)COc3ccccc3)no2)[nH]n1`, the IC50 in data set [1] was 0.146 µM; in data set [2], 0.188 µM; in data set [3], over 100 µM; in data set [4] it was over 100 µM; in data set [8] it was 62.7 µM. In data set [5], the solubility kinetic turned out to be 52 µg/mL (≈ 142 µM). Moreover, the Papp in data set [6] was found to be 6.09 ×10⁻⁶ cm/s. Further, in data set [7], the logD is 2.57.

Regarding `O=C(COc1ccccc1)N1CCCC[C@@H]1c1noc(-c2ccc3[nH]cnc3c2)n1`, the IC50 came out at 0.234 µM in data set [1]; 0.0292 µM in data set [2]; 15 µM in data set [3]; 66.8 µM in data set [4]; 33.1 µM in data set [8]. For the same compound, the solubility kinetic in data set [5] is 60 µg/mL (≈ 149 µM). Further, the Papp in data set [6] worked out at 3.03 ×10⁻⁶ cm/s. Also, in data set [7], the logD is 2.26.

Take `NC(=O)c1n[nH]c2cc(-c3noc([C@H]4CCCCN4C(=O)COc4ccccc4)n3)ccc12`: the IC50 in data set [1] is 1.07 µM; in data set [2] it was 0.0635 µM; in data set [3], over 100 µM; in data set [4] it was over 100 µM; in data set [8] it was over 100 µM. Besides, the solubility kinetic in data set [5] amounted to 5 µg/mL (≈ 11.2 µM). Besides, the Papp in data set [6] worked out at 2.35 ×10⁻⁶ cm/s. The same compound registered a logD in data set [7] of 3.04.

For the compound `NC(=O)c1ccc(-c2noc([C@H]3CCCCN3C(=O)COc3ccccc3)n2)cc1`, the IC50 in data set [1] is 0.255 µM; in data set [2], 0.0342 µM; in data set [3], 39.7 µM; in data set [4], 37.7 µM; in data set [8] it was over 100 µM. Besides, in data set [5], the solubility kinetic worked out at 52 µg/mL (≈ 128 µM). Moreover, in data set [6], the Papp came out at 5.08 ×10⁻⁶ cm/s. The compound further showed a logD in data set [7] of 2.66.

With `Cc1cc(C)cc(S(=O)(=O)N2CCc3ccc(C(=O)Nc4nc(CC(=O)O)cs4)cc32)c1`, the IC50 in data set [1] was 0.032 µM; in data set [2], 0.0167 µM; in data set [3] it was over 100 µM; in data set [4] it was over 100 µM; in data set [8] it was 0.531 µM. Further, in data set [5], the solubility kinetic amounted to 5 µg/mL (≈ 10.6 µM). The Papp in data set [6] was 2.22 ×10⁻⁶ cm/s. This compound also displayed a logD in data set [7] of 2.37.

`O=C(O)c1ccc(NC(=O)c2ccc3ccn(S(=O)(=O)c4cccc(Cl)c4)c3c2)cc1`: the half-inhibitory concentration (IC50) was determined as 0.0097 µM in data set [1]; 0.0167 µM in data set [2]; 2.29 µM in data set [3]; 3.28 µM in data set [4]; 26.5 µM in data set [8]. In addition, the solubility kinetic in data set [5] worked out at 1 µg/mL (≈ 2.2 µM). Further, the Papp in data set [6] was determined as 0.6 ×10⁻⁶ cm/s. For the same compound, the logD in data set [7] worked out at 2.99.

`COc1ccc(Cl)cc1S(=O)(=O)N(C)c1cc(C(=O)Nc2ccc(C(=O)O)cc2)cc2c1OCO2`: the IC50 in data set [1] was determined as 0.122 µM; in data set [2] it was 0.133 µM; in data set [3] it was 17.8 µM; in data set [4], 27.1 µM; in data set [8] it was 1.75 µM. For the same compound, the solubility kinetic in data set [5] came out at 13 µg/mL (≈ 25.1 µM). Besides, the Papp in data set [6] came out at 2.06 ×10⁻⁶ cm/s. This compound returned a logD in data set [7] of 0.26.

`COc1ccc(Cl)cc1S(=O)(=O)N1CCSc2ccc(C(=O)Nc3ccc(CC(=O)O)cc3)cc21`: the IC50 in data set [1] was 0.155 µM; in data set [2], 0.12 µM; in data set [3], over 100 µM; in data set [4], over 100 µM; in data set [8], 0.792 µM. The solubility kinetic in data set [5] stood at 232 µg/mL (≈ 435 µM). Further, the Papp in data set [6] was found to be 5.1 ×10⁻⁶ cm/s. For the same compound, the logD in data set [7] worked out at 0.61.

With `COc1ccc(Cl)cc1S(=O)(=O)N1CCCc2ccc(C(=O)Nc3ccc(C(=O)O)c(F)c3)cc21`, the IC50 in data set [1] was determined as 0.0477 µM; in data set [2] it was 0.0381 µM; in data set [3] it was 2.8 µM; in data set [4], 10.2 µM; in data set [8] it was 3.02 µM. Further, the solubility kinetic in data set [5] is 182 µg/mL (≈ 351 µM). The Papp in data set [6] was determined as 1.77 ×10⁻⁶ cm/s. The compound also yielded a logD in data set [7] of 0.55.

With `COc1ccc(Cl)cc1S(=O)(=O)N1CCS(=O)(=O)c2ccc(C(=O)Nc3ccc(C(=O)O)c(F)c3)cc21`, the IC50 in data set [1] is 0.0613 µM; in data set [2], 0.102 µM; in data set [3] it was 4.45 µM; in data set [4], 37.4 µM; in data set [8], 1.74 µM. Also, the solubility kinetic in data set [5] came out at 13 µg/mL (≈ 22.8 µM). Besides, in data set [6], the Papp turned out to be 0.21 ×10⁻⁶ cm/s. Moreover, in data set [7], the logD was -0.27.
